Here are results for two molecules from patent US20260102501A1, “ANTI-CANCER NUCLEAR HORMONE RECEPTOR-TARGETING COMPOUNDS” (Nuvation Bio Inc., priority 2022, published 2026).

The target of assay [1] is T1, ligand binding domain of the glucocorticoid receptor (HEK293 cells stably expressing) (Homo sapiens, UniProt P04150).
T1 sequence (P04150 524-758 limits assumed): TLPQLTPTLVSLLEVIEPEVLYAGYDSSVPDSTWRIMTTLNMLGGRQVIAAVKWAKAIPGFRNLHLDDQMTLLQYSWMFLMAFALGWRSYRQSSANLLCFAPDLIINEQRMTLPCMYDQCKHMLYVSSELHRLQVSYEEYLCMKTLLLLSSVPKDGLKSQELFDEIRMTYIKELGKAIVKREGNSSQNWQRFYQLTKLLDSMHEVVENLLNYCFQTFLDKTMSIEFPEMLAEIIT
Nature of the assay: GR antagonism assay (luciferase reporter).

The test system of assay [2] is T47D cells. Nature of the assay: Cell viability assay (CellTiterGlo). In kind it is cell-based. As to conditions: Homo sapiens, 144 h, read-out: T47D (IC50, nM). (In general: In ATP-based viability assays light output follows the ATP content of the culture.)
Assay [3] concerns the target T2, Progesterone PR-B receptors from human breast carcinoma T47D cells (Homo sapiens, UniProt P06401).
T2 sequence (P06401 1-933): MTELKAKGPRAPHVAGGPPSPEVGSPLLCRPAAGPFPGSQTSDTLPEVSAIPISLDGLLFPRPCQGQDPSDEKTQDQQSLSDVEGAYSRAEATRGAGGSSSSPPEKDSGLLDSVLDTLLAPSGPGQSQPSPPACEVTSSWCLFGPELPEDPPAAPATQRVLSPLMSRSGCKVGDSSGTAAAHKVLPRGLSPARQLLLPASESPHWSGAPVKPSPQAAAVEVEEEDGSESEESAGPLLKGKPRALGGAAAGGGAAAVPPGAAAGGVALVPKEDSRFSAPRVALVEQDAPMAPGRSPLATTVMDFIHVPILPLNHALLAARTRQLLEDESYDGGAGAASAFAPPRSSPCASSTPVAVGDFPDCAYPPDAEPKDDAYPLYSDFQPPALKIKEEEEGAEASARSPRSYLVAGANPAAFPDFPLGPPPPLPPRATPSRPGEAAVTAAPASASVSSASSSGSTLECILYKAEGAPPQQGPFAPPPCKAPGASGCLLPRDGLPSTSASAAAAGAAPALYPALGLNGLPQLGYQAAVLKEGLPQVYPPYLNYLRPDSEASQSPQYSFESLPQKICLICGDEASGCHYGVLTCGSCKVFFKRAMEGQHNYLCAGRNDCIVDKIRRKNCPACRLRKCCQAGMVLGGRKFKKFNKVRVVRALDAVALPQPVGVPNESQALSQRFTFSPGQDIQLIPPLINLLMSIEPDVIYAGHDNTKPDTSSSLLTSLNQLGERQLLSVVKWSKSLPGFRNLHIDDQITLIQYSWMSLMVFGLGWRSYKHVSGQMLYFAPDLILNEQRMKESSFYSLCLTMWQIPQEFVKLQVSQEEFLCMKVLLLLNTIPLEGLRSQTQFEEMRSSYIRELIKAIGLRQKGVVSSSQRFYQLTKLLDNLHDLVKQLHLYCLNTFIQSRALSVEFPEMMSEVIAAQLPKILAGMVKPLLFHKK
Nature of the assay: PR binding assay ([3H] Progesterone displacement).

For assay [4], the target named is T3, AR (cytosol from LnCaP cells) (Homo sapiens, UniProt P10275, T878A).
T3 sequence (P10275 1-920 T878A): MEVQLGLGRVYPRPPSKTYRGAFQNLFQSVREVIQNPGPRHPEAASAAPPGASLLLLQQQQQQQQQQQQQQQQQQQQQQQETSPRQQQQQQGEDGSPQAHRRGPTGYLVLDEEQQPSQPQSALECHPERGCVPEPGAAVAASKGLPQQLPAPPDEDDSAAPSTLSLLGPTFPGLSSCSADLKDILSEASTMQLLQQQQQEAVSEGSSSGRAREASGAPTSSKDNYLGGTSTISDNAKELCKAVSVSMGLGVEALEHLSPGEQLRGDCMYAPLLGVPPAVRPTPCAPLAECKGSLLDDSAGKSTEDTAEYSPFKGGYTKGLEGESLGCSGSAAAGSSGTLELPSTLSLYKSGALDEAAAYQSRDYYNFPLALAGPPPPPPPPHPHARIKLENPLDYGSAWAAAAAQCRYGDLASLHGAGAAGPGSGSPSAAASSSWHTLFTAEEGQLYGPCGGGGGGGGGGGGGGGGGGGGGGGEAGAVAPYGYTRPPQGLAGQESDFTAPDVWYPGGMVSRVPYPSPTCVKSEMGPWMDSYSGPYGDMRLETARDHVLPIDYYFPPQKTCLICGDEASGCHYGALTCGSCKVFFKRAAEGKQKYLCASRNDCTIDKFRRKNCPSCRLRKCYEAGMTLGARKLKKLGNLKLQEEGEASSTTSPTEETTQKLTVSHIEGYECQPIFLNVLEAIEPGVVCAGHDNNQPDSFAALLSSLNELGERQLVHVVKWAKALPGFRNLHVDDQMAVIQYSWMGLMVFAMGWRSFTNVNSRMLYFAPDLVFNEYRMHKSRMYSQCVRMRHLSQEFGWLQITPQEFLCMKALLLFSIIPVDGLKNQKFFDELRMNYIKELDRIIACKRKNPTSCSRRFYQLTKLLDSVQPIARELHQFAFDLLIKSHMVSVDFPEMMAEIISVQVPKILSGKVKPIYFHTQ
The assay is described as follows: AR binding assay (3H-R1881 displacement).
Experimental: The plate was then centrifuged at 3000 rpm for 30 minutes at 4° C.

The target of assay [5] is T4, GR (cytosol from IM-9 cells) (Homo sapiens, UniProt P04150).
T4 sequence (P04150 1-777): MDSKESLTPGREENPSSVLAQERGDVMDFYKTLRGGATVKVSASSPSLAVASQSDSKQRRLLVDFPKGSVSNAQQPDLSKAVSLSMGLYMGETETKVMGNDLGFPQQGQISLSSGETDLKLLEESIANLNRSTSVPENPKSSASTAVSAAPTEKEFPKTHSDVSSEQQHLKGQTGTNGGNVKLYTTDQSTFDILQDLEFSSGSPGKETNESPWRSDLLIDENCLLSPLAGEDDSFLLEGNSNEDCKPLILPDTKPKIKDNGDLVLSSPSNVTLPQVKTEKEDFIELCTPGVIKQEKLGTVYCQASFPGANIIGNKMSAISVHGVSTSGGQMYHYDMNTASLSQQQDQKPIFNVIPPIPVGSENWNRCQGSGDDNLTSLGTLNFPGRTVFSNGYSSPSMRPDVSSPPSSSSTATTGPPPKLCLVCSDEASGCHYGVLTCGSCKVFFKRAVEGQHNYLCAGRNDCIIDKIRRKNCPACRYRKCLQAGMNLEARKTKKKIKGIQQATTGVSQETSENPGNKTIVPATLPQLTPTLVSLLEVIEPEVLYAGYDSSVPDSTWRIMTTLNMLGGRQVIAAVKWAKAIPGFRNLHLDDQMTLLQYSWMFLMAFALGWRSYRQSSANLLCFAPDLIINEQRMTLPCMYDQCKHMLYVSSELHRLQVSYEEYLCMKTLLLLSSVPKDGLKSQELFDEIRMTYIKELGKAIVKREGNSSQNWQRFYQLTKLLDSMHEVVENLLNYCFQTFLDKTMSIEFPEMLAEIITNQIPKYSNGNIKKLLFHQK
Nature of the assay: GR binding assay (3H-Dexamethasone displacement).

Assay [6] relates to LNCap cells. Nature of the assay: Cell viability assay (CellTiterGlo). Format: cell-based. As to conditions: Homo sapiens, 144 h, read-out: LNCap (IC50, nM).
For assay [7], the target named is T5, Progesterone Receptor (PR)-LBD and coactivator peptide (Homo sapiens, UniProt P06401).
T5 sequence (P06401 679-913 limits assumed): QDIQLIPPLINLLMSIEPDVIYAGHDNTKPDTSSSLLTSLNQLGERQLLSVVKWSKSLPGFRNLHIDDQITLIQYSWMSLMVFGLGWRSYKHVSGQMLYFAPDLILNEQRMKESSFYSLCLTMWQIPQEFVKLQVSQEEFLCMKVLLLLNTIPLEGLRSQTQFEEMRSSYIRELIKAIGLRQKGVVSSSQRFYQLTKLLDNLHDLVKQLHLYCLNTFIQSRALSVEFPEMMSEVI
Nature of the assay: PR coactivator antagonist assay. As to conditions: 2.5 nM PR-LBD, 10 nM progesterone-induced fluorescence response.

The test system of assay [8] is IEC6 cells. Nature of the assay: Cell viability assay (CellTiterGlo). As to conditions: Rattus norvegicus, IEC-6, 144 h, read-out: IEC-6 (IC50, nM).
Assay [9] deals with 22Rv1 cells. The assay is described as follows: Cell viability assay (CellTiterGlo). As to conditions: Homo sapiens, 22Rv1, 144 h, read-out: 22RV1 (IC50, nM).
Experimental: Cell viability assay: LNCap, 22Rv1, MCF7, MDAMB361, T47D, and IEC6 cells were seeded at a density of 500-2000 cells/well in 96 well plates, and a ‘T0’ (timepoint 0) was included along with the assay plate. The plates were then incubated at 37° C., 5% CO2 in a cell culture incubator overnight. On the next day, the ‘T0’ plate was assayed using CellTiterGlo (Promega, Inc) according to the manufacturer's instructions. The appropriate compounds were diluted in DMSO and added to the assay plate (final DMSO concentration of 0.1-0.2%) on the next day. The assay plates were incubated for 6 days at 37° C., 5% CO2. After the incubation period, the plates were assayed using CellTiterGlo (Promega, Inc) according to the manufacturer's instructions and luminescence was read on the En Vision plate reader. […] GraphPadPrism was used to analyze the data and determine GI50/IC50 values.
The target in assay [10] is T6, full-length androgen receptor (HEK293 cells stably expressing) (Homo sapiens, UniProt P10275).
T6 sequence (P10275 1-920): T3 sequence (P10275 1-920 T878A) with A878T
The assay is described as follows: AR antagonism assay (luciferase reporter). A general note: In a reporter assay the amount or activity of a reporter protein is the signal.

Where a chain is given by its changes, count along the chain named.

As to `CC[C@@]1(O)C(=O)OCc2c1cc1n(c2=O)Cc2cc3c(CN(C)C)c(OC(=O)N4C5CC4CN(CCCCCCN(C)c4ccc([C@H]6C[C@@]7(C)[C@@H](CC[C@]7(OC(C)=O)C(C)=O)[C@@H]7CCC8=CC(=O)CCC8=C76)cc4)C5)ccc3nc2-1` [Compound 3, (S)-10-((Dimethylamino)methyl)-4-ethyl-4-hydroxy-3,14-dioxo-3,4,12,14-tetrahydro-1H-pyrano[3′,4′:6,7]indolizino[1,2-b]quinolin-9-yl 3-(6-((4-((8S,11R,13S,14S,17R)-17-acetoxy-17-acetyl-13-methyl-3-oxo-2,3,6,7,8,11,12,13,14,15,16,17-dodecahydro-1H-cyclopenta[a]phenanthren-11-yl)phenyl)(methyl)amino)hexyl)-3,6-diazabicyclo[3.1.1]heptane-6-carboxylate], the IC50 in assay [1] is 10 to 100 nM; in [2] it was 10 to 100 nM; in [3], below 10 nM; in assay [4], 10 to 100 nM; in assay [5], below 10 nM; in assay [6], 101 to 1000 nM. The IC50 in assay [8] was above 1000 nM. Further, the PR antagonism entry in [7] is recorded as “a (IC50 =< 10 nM)”.
As for `CC[C@@]1(O)C(=O)OCc2c1cc1n(c2=O)Cc2cc3c(CN(C)C)c(OC(=O)N4CCN(C(=O)[C@H](CCCNC(N)=O)NC(=O)[C@@H](NCCCCCCN(C)c5ccc([C@H]6C[C@@]7(C)[C@@H](CC[C@]7(OC(C)=O)C(C)=O)[C@@H]7CCC8=CC(=O)CCC8=C76)cc5)C(C)C)CC4)ccc3nc2-1` [Compound 39, (S)-10-((dimethylamino)methyl)-4-ethyl-4-hydroxy-3,14-dioxo-3,4,12,14-tetrahydro-1H-pyrano[3′,4′:6,7]indolizino[1,2-b]quinolin-9-yl 4-((S)-2-((S)-2-((6-((4-((8S,11R,13S,14S,17R)-17-acetoxy-17-acetyl-13-methyl-3-oxo-2,3,6,7,8,11,12,13,14,15,16,17-dodecahydro-1H-cyclopenta[a]phenanthren-11-yl)phenyl)(methyl)amino)hexyl)amino)-3-methylbutanamido)-5-ureidopentanoyl)piperazine-1-carboxylate], the IC50 was 101 to 1000 nM in assay [1]; 101 to 1000 nM in [2]; below 10 nM in [3]; 10 to 100 nM in [4]; 101 to 1000 nM in [9]; above 1000 nM in [10]. For the same molecule, in [8], the IC50 was above 1000 nM.

Usually IC50 stands for the concentration needed to halve the response being measured.
